Details: pampa; pH 5.0; 30.0 min; 50.0 µM
Compound CCCCOc1ccc(CNC(=O)c2cc3n(n2)CCCN(Cc2ccc(C)cc2)C3=O)cc1 has a Papp of 867 ×10⁻⁶ cm/s. CCOc1ccccc1CNS(=O)(=O)c1ccc(-c2cnc(C3CC3)o2)cc1 gave a Papp greater than 1000 ×10⁻⁶ cm/s. CCOC(=O)c1[nH]c(C)c(CCC(=O)N2CCN(c3cc(C)ccc3C)CC2)c1C gave a Papp greater than 1000 ×10⁻⁶ cm/s. With c1ccc(Nc2cc3c(cn2)CN(Cc2ccsc2)CCN3)cc1 the Papp was 15.3 ×10⁻⁶ cm/s. Cc1cc(C)cc(C(=O)Nc2ccc3c(N4CCCC4)ncnc3c2)c1 showed a Papp of 506 ×10⁻⁶ cm/s. With COc1cc2c(Nc3ccc(Br)cc3F)ncnc2cc1OCC1CCN(C)CC1 the Papp was 97.3 ×10⁻⁶ cm/s. In the case of COc1ccc2c(c1)N(C[C@H](C)CN(C)C)c1ccccc1S2, the Papp is reported as 723 ×10⁻⁶ cm/s. CC[C@H]1CN2CCC3CC(OC)C(OC)CC3[C@@H]2C[C@@H]1C[C@H]1NCCC2=C1CC(OC)=C(O)C2 (stereo partly specified) showed a Papp of 17.9 ×10⁻⁶ cm/s. COc1ccc(-n2nc(C3CCCN(C(=O)Cc4ccccn4)C3)[nH]c2=O)cc1 (stereo unspecified) gave a Papp of 71.4 ×10⁻⁶ cm/s. In the case of COc1ccc(-n2nc(C3CCCN(C(=O)Cc4ccc(F)cc4)C3)[nH]c2=O)cc1 (stereo unspecified), the Papp is reported as 524 ×10⁻⁶ cm/s. With CN1C(=O)C(=O)N2C(=C[C@]3(c4c[nH]c5ccccc45)c4ccccc4N[C@H]23)C1=O the Papp was 986 ×10⁻⁶ cm/s. Work on CN(C)[C@@H]1CCN(c2cccc(Nc3nn4c(=O)c5ccccc5nc4s3)c2)C1 yielded a Papp of 24.9 ×10⁻⁶ cm/s. Cc1nn2c(c1-c1ccccc1-c1ccccc1)N(CCC(C)C)CCC2 gave a Papp of 350 ×10⁻⁶ cm/s. With COc1ccc(NC(=O)c2cc(-c3ccc[nH]3)n[nH]2)cc1OC the Papp was 203 ×10⁻⁶ cm/s. O=C(CCCN1CCC(n2c(=O)[nH]c3ccccc32)CC1)c1ccc(F)cc1 showed a Papp of 98.2 ×10⁻⁶ cm/s. COc1ccc(-c2ccc3ncc(Nc4ccncc4)n3n2)cc1OC gave a Papp of 26.2 ×10⁻⁶ cm/s. Cc1ccc(-c2c(CN3CCN(c4cccc(C(F)(F)F)c4)CC3)csc2C)cc1 showed a Papp of 35 ×10⁻⁶ cm/s. Compound COc1ccccc1CN1CCNc2cc(Nc3ccccc3)ncc2C1 has a Papp of 22.3 ×10⁻⁶ cm/s. COc1cc2ncnc(Oc3cccc(NC(=O)Nc4cc(C(C)(C)C(F)(F)F)on4)c3)c2cc1OC gave a Papp of 137 ×10⁻⁶ cm/s. Compound c1coc(-c2nc3ccncc3[nH]2)c1 has a Papp of 5.56 ×10⁻⁶ cm/s. In the case of CCc1ccc2ncc(C(=O)c3ccc(C)c(C)c3)c(N3CCC(C(N)=O)CC3)c2c1, the Papp is reported as 653 ×10⁻⁶ cm/s. For CC(C)c1ccc(OCc2nc3c(n2Cc2ccccc2)C(=O)N(CC2CCOCC2)CCN3)cc1, the Papp was 643 ×10⁻⁶ cm/s. For O=C(NCc1ccc(S(=O)(=O)c2cccc(C(F)(F)F)c2)cc1)c1cnc2[nH]ncc2c1, the Papp was 362 ×10⁻⁶ cm/s. For CCOC(=O)c1cnc2ccc(-c3cncc(NS(=O)(=O)c4ccccc4)c3)cn12, the Papp was 546 ×10⁻⁶ cm/s. Work on O=S(=O)(c1ccccc1)c1nc(-c2ccc(F)cc2)oc1N1CCCCCC1 yielded a Papp greater than 1000 ×10⁻⁶ cm/s. Compound C[C@@]1(c2ncncc2F)NC(=O)c2cc(-c3cn[nH]c3)ccc21 has a Papp greater than 1000 ×10⁻⁶ cm/s. For CNc1nc2c(s1)C(c1ccccc1F)CC(=O)N2 (stereo unspecified), the Papp was 60.3 ×10⁻⁶ cm/s. COc1cc(NC(=O)c2cc(-c3ccccc3O)no2)cc(OC)c1OC gave a Papp greater than 1000 ×10⁻⁶ cm/s. Compound Cc1ccccc1NC(=O)Nc1cccs1 has a Papp of 209 ×10⁻⁶ cm/s. In the case of Cc1noc([C@@H]2CN(C(=O)c3nn(C)c4ccccc34)C[C@H]2CO)n1, the Papp is reported as 91.5 ×10⁻⁶ cm/s. Compound CCC(=O)N1CCN(c2ccc(-n3c(=O)ccc4cnc5ccc(-c6cnc7ccccc7c6)cc5c43)cc2C(F)(F)F)CC1 has a Papp of 537 ×10⁻⁶ cm/s. In the case of C[C@H]1CN(C(=O)c2nn(C)c3ccccc23)C[C@@H]1c1nc(-c2ccncc2)no1, the Papp is reported as 667 ×10⁻⁶ cm/s. Work on Cc1cc(CNC(=O)c2ccc3c(c2)n(CC2CC2)c(=O)n3C2CCCCC2)on1 yielded a Papp of 870 ×10⁻⁶ cm/s. Compound CCNC(=O)c1coc(COc2ccc3c(c2)C(c2ccc(F)cc2)N(C(=O)CC(C)C)CC3)n1 (stereo unspecified) has a Papp greater than 1000 ×10⁻⁶ cm/s. Work on COc1ncc(-c2n[nH]c3c2CC(=O)N(c2ccccc2)C3)cn1 yielded a Papp of 42.5 ×10⁻⁶ cm/s. Compound O=C(Nc1ccc(N2CCC(N3CCCCC3)CC2)c(C(=O)O)c1)c1ccc(Br)cc1 has a Papp of 7.15 ×10⁻⁶ cm/s. O=C(O)c1ccc(N2C(=O)/C(=C/c3ccc(-c4ccc([N+](=O)[O-])cc4)o3)C=C2c2ccccc2)cc1 showed a Papp of 37.5 ×10⁻⁶ cm/s. COc1ccc2[nH]c(S(=O)Cc3ncc(C)c(OC)c3C)nc2n1 (stereo unspecified) gave a Papp of 49.8 ×10⁻⁶ cm/s. For CC(C)Oc1ccc(CNC(=O)C2CCN(C(=O)N3CCOc4ccc(Cl)cc43)CC2)cc1, the Papp was 860 ×10⁻⁶ cm/s. Work on NC(=O)c1ccc(-c2ncc3cnc(-c4cccc(F)c4)cn23)cc1 yielded a Papp of 135 ×10⁻⁶ cm/s. O=c1[nH]c(N2CCOCC2)nc2c1CCN(Cc1cc(Cl)ccc1F)CC2 showed a Papp of 46.3 ×10⁻⁶ cm/s.
